Experiments:
spleen T cells [1] = assay: T cell proliferation inhibition (CFSE, FACS), CD3/CD28-activated spleen T cells; type: cell-based, C57BL/6 mice; conditions: Table 2, 3 days, relative to CD3/CD28+DMSO
In short: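 Proliferation inhibition is expressed as a percentage versus CD3/CD28-stimulated DMSO controls, from CFSE dye dilution measured by FACS after 3 days at 37 °C. Compounds at 10, 30 and 50 μM (triplicate) on anti-CD3/CD28-activated (0.5 μg/mL each) C57BL/6 mouse spleen T cells, 2×10^5 per well.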

[2] = tested on: T lymphocyte cell line Jurkat E6-1; assay: Cytotoxicity experiment (CCK-8, relative cell survival); type: cell-based; conditions: 24 hours, untreated cells = 100%
In short: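 Relative survival versus untreated cells (set to 100%) from CCK-8 absorbance at 450 nm after 2 h dye incubation. Cells had been treated with graded compound concentrations for 24 h at 37 °C in 5% CO2, cultured in RPMI-1640 plus 10% FBS.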

[3] = tested on: psoriasis mouse animal model; assay: Psoriasis mouse animal model (imiquimod-induced); type: in vivo, BALB/c mice; conditions: 40 mg/kg intraperitoneally twice a day
Text: To confirm the therapeutic effect of compounds according to the present invention on psoriasis, a psoriasis animal model was established to evaluate the alleviation of skin lesions and changes in immune cell profiles by administering Compound 69 or Compound 83 via injection.
To establish a psoriasis mouse animal model, BALB/c mice (7 weeks old, 20 g, female) were purchased from Hana Biotech Co. and allowed to acclimate to the housing environment for one week. Afterward, the fur on the dorsal area of the mice was initially shaved using a shaver, followed by complete removal with depilatory cream (Nicrin Cream, comprising thioglycolic acid 80%, manufactured by ILDONG Pharmaceutical CO., LTD). The mice were then housed for 24 hours to confirm any wounds on their backs.
Subsequently, in order to verify the preventive and therapeutic effects of compounds according to the present invention on psoriasis, five experimental groups were established as shown in FIG. 7 and Table 5. From the second to the fifth group, Aldara® cream was applied once daily for two weeks (14 days, total of 14 applications) at a dose of 80 mg (imiquimod, 4 mg) per mouse to induce psoriasis. Furthermore, to compare the preventive and therapeutic effects of compounds according to the present invention (Compound 69 and Compound 83) on psoriasis, 40 mg/kg of the compound per mouse was dissolved in DMSO corresponding to 10% of the dosing volume, and then diluted in a mixture of Cremophor EL-PEG 400-distilled water to achieve a final ratio of DMSO: Cremophor EL:PEG 400:distilled water to 1:1:4:4 (v/v/v/v). Subsequently, the respective injections were intraperitoneally administered at a dose of 100 μL per mouse, twice a day with a 12-hour interval. For the Vehicle control group, injections excluding the drug but comprising the vehicle solution (DMSO: Cremophor EL:PEG 400:distilled water=1:1:4:4 (v/v/v/v)) were administered at a dose of 100 μL per mouse, twice a day with a 12-hour interval.
To assess the impact of each compound on immune cells in vivo, the spleens of mice treated with each compound were harvested, and cells were extracted, and cells were suspended in MACS buffer (2 mM EDTA, 0.5% FBS, 137 mM NaCl, 2.7 mM KCl, 10 mM Na2HPO4, 1.8 mM KH2PO4, Miltenyi Biotech.). For flow cytometry analysis, each mouse's splenocytes were aliquoted at 5×10^5 cells per FACS tube (5 mL round tube, Falcon). To prevent non-specific antibody binding, each tube was treated with 1 μg/mL of anti-mouse CD16/CD32 (InVivoMAb) for 30 minutes, followed by centrifugation at 13,000 rpm for 5 minutes, and resuspended in 100 μL of MACS buffer. Subsequent experiments were conducted depending on the type of immune cells to be examined.
(§1) For B cells, each FACS tube was stained with 1 μg/mL of FITC-conjugated anti-B220 antibody (eBioscience™) at 4° C. for 30 minutes, followed by washing with 2 mL of MACS buffer. Subsequently, each tube was centrifuged at 15,000 rpm for 5 minutes, the supernatant was removed, and the precipitated cells were fixed using 200 μL of 4% paraformaldehyde solution.
For T cells, each FACS tube was stained with 1 μg/mL of PerCP-Cy5.5-conjugated anti-CD3 antibody (Biolegend), FITC-conjugated anti-CD8 antibody (eBioscience™) and Cy7-conjugated anti-CD4 antibody (eBioscience™) at 4° C. for 30 minutes, followed by washing with 2 mL of MACS buffer. Subsequently, each tube was centrifuged at 15,000 rpm for 5 minutes, the supernatant was removed, and the precipitated cells were fixed using 200 μL of 4% paraformaldehyde solution.
as §1, with “macrophages,” for “B cells,”, “anti-CD11b” for “anti-B220”

spleen T cells [4] = assay: Cytokine secretion by anti-CD3/CD28-activated T cells (Cytometric Bead Array); type: cell-based, C57BL/6 mice; conditions: 30 μM; for secretion of IL-2: 24 hours after treatment, FIG. 3; for secretion of IFN-γ / secretion of IL-17A / secretion of TNF-α: 72 hours after treatment
Experimental: To confirm the effect of compounds of the present invention on the secretion of cytokines by T cells, the following experiment was conducted.
Spleens were harvested and minced from C57BL/6 mice at 7 weeks of age, and single cells were isolated using a strainer (40 μm pore size, SPL). Red blood cells were removed using ACK (Ammonium-Chloride-Potassium) lysis buffer to isolate only leukocytes. These were then reacted with 10 v/v % CD90.2 microbeads (130-121-278, Miltenyi Biotech.) at 4° C. for 20 minutes, resulting in the isolation of spleen T cells from magnetic-based purification. The T cells were cultured in a 96-well plate at an amount of 2×10^5 cells/well. For T cell activation, each well was treated with anti-CD3/CD28 antibodies at a concentration of 1 μg/mL. Subsequently, Vehicle (DMSO) and compounds (Compound 14, Compound 19, Compound 26, Compound 31, Compound 35, Compound 40, Compound 41, Compound 56, Compound 69, Compound 75) at a concentration of 30 μM were treated in each well, and it was cultured at 37° C. in a 5% CO2 incubator. After 24 and 72 hours, the T cell culture medium was taken, and centrifugation was performed at 13,000 rpm for 10 minutes to obtain the supernatant.
To measure the concentration of cytokines present in the T cell culture medium, Mouse Th1/Th2/Th17 Cytokine CBA Kit (Cytometric Bead Array kit) 560485 from BD Science was utilized for flow cytometry analysis. The secretion levels of IL-2 at 24 hours after each drug treatment, and IFN-γ, TNF-α, and IL-17A at 72 hours were measured after each drug treatment.

[5] = flow cytometry, versus psoriasis groups, FIG. 10

Compound | inhibition at 10 µM (spleen T cells [1]; Mus musculus, T-cell, 72 h, 10 μM, read-out: Proliferation inhibition rate (%)) [%] | inhibition at 30 µM (spleen T cells [1]; Mus musculus, T-cell, 72 h, 30 μM, read-out: Proliferation inhibition rate (%)) [%] | inhibition at 50 µM (spleen T cells [1]; Mus musculus, T-cell, 72 h, 50 μM, read-out: Proliferation inhibition rate (%)) [%] | Relative cell survival rate (%) ([2]; 10 μM) | Relative cell survival rate (%) ([2]; 20 μM) | Relative cell survival rate (%) ([2]; 30 μM) | Relative cell survival rate (%) ([2]; 50 μM) | skin lesions (erythema, thickness, exfoliation of back skin) ([3]; 14 days, FIG. 8) | hyperkeratosis, parakeratosis, irregular acanthosis, infiltration of inflammatory cells (H&E staining) ([3]; 14 days, FIG. 9) | proportion of B cells in the spleen [3, 5] | proportion of CD11b granulocytes in the spleen [3, 5] | proportion of T cells in the spleen [3, 5] | Proliferation inhibition rate (%) (spleen T cells [1]; 10 μM) | Proliferation inhibition rate (%) (spleen T cells [1]; 30 μM) | Proliferation inhibition rate (%) (spleen T cells [1]; 50 μM) | secretion of IL-2 (spleen T cells [4]) | secretion of IFN-γ (spleen T cells [4]) | secretion of IL-17A (spleen T cells [4]) | secretion of TNF-α (spleen T cells [4])
O=C(NCCCCCCCCCCCCO)c1ccccc1Br [Compound 83] | 0 | 63 | 100 | 102 | 105 | 87 | 77 | either minimally present or hardly observed | either minimally present or hardly observed | increase | decreased | increase | – | – | – | – | – | – | –
CCCCCCCCCCCCNS(=O)(=O)c1c(Cl)cccc1Cl [Compound 40] | – | – | – | 105 | 99 | 96 | 86 | – | – | – | – | – | 86 | 97 | 97 | significant decrease | significant decrease | significant decrease | significant decrease
CCCCCCCCCCCCNS(=O)(=O)c1ccccc1Br [Compound 35] | – | – | – | 97 | 89 | 87 | 86 | – | – | – | – | – | 85 | 92 | 93 | significant decrease | significant decrease | significant decrease | significant decrease
CCCCCCCCCCCCNC(=O)c1cccnc1Oc1ccc(Cl)cc1 [Compound 26] | – | – | – | 101 | 97 | 85 | 82 | – | – | – | – | – | 73 | 100 | 100 | significant decrease | significant decrease | significant decrease | significant decrease
